Source: patent publication US7414042B2, “Method and composition for selectively inhibiting melanoma” (The Board of Trustees of The University of Illinois, priority 1995, dated 2008)
≈ marks a conversion by molar mass, not a printed value. Read-outs that look alike come from different tables or passages of the source.

Legend:
[1] = tested on: KB (human oral epidermoid carcinoma); experiment: Cytotoxicity against cultured human cancer cells (SRB); assay type: cell-based; settings: for ED50 (Std. Dev.) KB: derivatives, Tables 2-6; for IC50: Homo sapiens, 72 h, three days incubation, SRB, Table 1, read-out: ED50 KB
Protocol: (§1) The plates were incubated for three days. […] Dose response studies were performed to generate ED50 values.

[2] = tested on: MEL-2 (melanoma); experiment: Cytotoxicity against cultured human melanoma cells (SRB); assay type: cell-based; settings: for ED50 (Std. Dev.) MEL-2: derivatives, Tables 2-6; for IC50: Homo sapiens, MEL2, 72 h, three days incubation, SRB, Table 1 and text, read-out: ED50 MEL-2
Protocol: as §1

[3] = tested on: LOX melanoma cell line; experiment: Cytotoxicity of betulinic acid derivatives; assay type: cell-based, human; settings: Tables 2-6
Protocol: as §1

[4] = tested on: BC-1 (breast); experiment: Cytotoxicity against cultured human cancer cells (SRB); assay type: cell-based; settings: Homo sapiens, 72 h, read-out: ED50 BC-1
Protocol: as §1

[5] = tested on: COL-2 (colon); experiment: as above; assay type: cell-based; settings: Homo sapiens, Col2, 72 h, read-out: ED50 COL-2
Protocol: as §1

[6] = tested on: LNCaP (prostate); experiment: as above; assay type: cell-based; settings: Homo sapiens, LNCaP, 72 h, read-out: ED50 LNCaP
Protocol: as §1

[7] = tested on: U373 (glioma); experiment: as above; assay type: cell-based; settings: Homo sapiens, U373 MG, 72 h, read-out: ED50 U373
Protocol: as §1

[8] = tested on: ZR-75-1 (breast); experiment: as above; assay type: cell-based; settings: Homo sapiens, ZR-75-1, 72 h, read-out: ED50 ZR 75-1
Protocol: as §1

[9] = tested on: human melanoma and nonmelanoma cancer cell lines; experiment: Cytotoxicity profile across the panel of human cancer cell lines; settings: Table 1 panel
Protocol: (§2) In the following Table 1, the extracted betulinic acid and the other pure compounds were tested for cycotoxity against the following cultured human cell lines: A431 (squamous cells), BC-1 (breast), COL-2 (colon), HT-1080 (sarcoma), KB (human oral epidermoid carcinoma), LNCaP (prostate), LU-1 (lung), MEL-2 (melanoma), U373 (glioma) and ZR-75-1 (breast).
(§3) Cytotoxicity of the crude extracts and purified compounds was determined in a number of cultured human cancer cell lines. The cells were cultured in appropriate media and under standard conditions. To maintain logarithmic growth, the media were changed 24 hours prior to cytotoxic assays. On the day of the assay, the cells were harvested by trypsinization, counted, diluted in media, and added to 96-well plates containing test compounds dissolved in DMSO; the final DMSO concentration was 0.05%.
(§4) The plates were incubated for three days. Following the incubation period, the cells were fixed and stained with sulforhodamine B (SRB) dye. The bound dye was liberated with Tris base, and the OD515 was measured on an ELISA reader. The growth of the betulinic acid-treated cells was determined by the OD515 values, and the growth was compared to the OD515 values of DMSO-treated control cells. Dose response studies were performed to generate ED50 values.
(§5) The biological evaluation of the derivatives focused on the activity against human melanoma cell lines. In particular, the following betulinic acid derivatives were prepared and tested for cytotoxicity profile against human melanoma cell lines and against a number of selected nonmelanoma cell lines.

[10] = tested on: MALE-3M melanoma cell line; experiment: Cytotoxicity of betulinic acid derivatives; assay type: cell-based, human; settings: Tables 2-6
Protocol: as §1

[11] = tested on: MEL-6 melanoma cell line; experiment: Cytotoxicity of betulinic acid derivatives; assay type: cell-based, human; settings: Tables 2-6
Protocol: as §1

[12] = tested on: MEL-8 melanoma cell line; experiment: Cytotoxicity of betulinic acid derivatives; assay type: cell-based, human; settings: Tables 2-6
Protocol: as §1

[13] = tested on: human melanoma and nonmelanoma cancer cell lines
Protocol: as §2, §3, §4, §5

[14] = tested on: A431 (squamous cells); experiment: Cytotoxicity against cultured human cancer cells (SRB); assay type: cell-based; settings: Homo sapiens, A-431, 72 h, read-out: ED50 A431
Protocol: as §1

[15] = tested on: HT-1080 (sarcoma); experiment: as above; assay type: cell-based; settings: Homo sapiens, HT-1080, 72 h, three days incubation, read-out: ED50 HT-1080
Protocol: as §1

[16] = tested on: LU-1 (lung); experiment: as above; assay type: cell-based; settings: Homo sapiens, 72 h, three days incubation, read-out: ED50 LU-1
Protocol: as §1

Structure (SMILES) | ED50 (Std. Dev.) KB [1] [µg/mL] | ED50 (Std. Dev.) MEL-2 [2] | ED50 (Std. Dev.) LOX [3] [µg/mL] | ED50 (Std. Dev.) MALE-3M [10] [μg/mL] | ED50 (Std. Dev.) MEL-6 [11] | ED50 (Std. Dev.) MEL-8 [12] | cytotoxicity and selectivity compared with betulinic acid or the corresponding analog [13] | further results
C=C(C)[C@@H]1CC[C@]2(C(=O)OC)CC[C@]3(C)[C@H](CC[C@@H]4[C@@]5(C)CC[C@H](O)C(C)(C)[C@@H]5CC[C@]43C)[C@@H]12 [Compound 14, Methyl betulinate] | 11.8 (≈ 25.1 µM) | 8.3 µg/mL (≈ 17.6 µM) | 12.5 (≈ 26.6 µM) | – | – | – | – | –
CC(=O)O[C@H]1C(=O)[C@@]2(C)[C@H]([C@H](OC(=O)c3ccccc3)[C@]3(O)C[C@H](OC(=O)[C@H](O)[C@@H](NC(=O)c4ccccc4)c4ccccc4)C(C)=C1C3(C)C)[C@]1(OC(C)=O)CO[C@@H]1C[C@@H]2O [Taxol, paclitaxel] | – | – | – | – | – | – | – | IC50 ([4]; three days incubation, SRB): 0.02 µg/mL (≈ 0.0234 µM); IC50 ([5]; three days incubation, SRB): 0.02 µg/mL (≈ 0.0234 µM); IC50 [1]: 0.02 µg/mL (≈ 0.0234 µM); IC50 ([6]; three days incubation, SRB): 0.02 µg/mL (≈ 0.0234 µM); IC50 ([7]; three days incubation, SRB): 0.008 µg/mL (≈ 0.00937 µM); IC50 ([8]; three days incubation, SRB): 0.02 µg/mL (≈ 0.0234 µM); IC50 [2]: 0.06 µg/mL (≈ 0.0703 µM); cytotoxic activity profile, cell-type selectivity [9]: relatively intense, nonselective cytotoxic activity
CC(C)C1CCC2(C(=O)O)CCC3(C)C(CCC4C5(C)CCC(=NO)C(C)(C)C5CCC43C)C12 (stereo not drawn) [Compound 7] | – | 2.2 (0.3) μg/mL | – | 13.9 | 13.1 (1.1) μg/mL | 1.6 (1.1) μg/mL | comparable biological activity | –
C=C(C)[C@@H]1CC[C@]2(C(=O)O)CC[C@]3(C)[C@H](CC[C@@H]4[C@@]5(C)CCC(=O)C(C)(C)[C@@H]5CC[C@]43C)[C@@H]12 [Compound 8, Betulonic acid] | 2.5 (≈ 5.5 µM) | 0.9 (0.8) μg/mL | 6.9 (≈ 15.2 µM) | 20 | 15.3 (3.4) μg/mL | 0.4 (0.1) μg/mL | decrease in selective cytotoxicity | –
CC(C)[C@@H]1CC[C@]2(C(=O)O)CC[C@]3(C)[C@H](CC[C@@H]4[C@@]5(C)CCC(=O)C(C)(C)[C@@H]5CC[C@]43C)[C@@H]12 [Compound 6, Dihydrobetulonic acid] | – | 0.7 (0.6) μg/mL | – | 20 | 10.8 (2.6) μg/mL | 0.9 (0.4) μg/mL | comparable biological activity | –
C=C(C)C1CCC2(C=NOC)CCC3(C)C(CCC4C5(C)CCC(=NOC)C(C)(C)C5CCC43C)C12 (stereo not drawn) [Compound 3] | 20 (≈ 40.3 µM) | >20 µg/mL | >20 | >20 | >20 µg/mL | >20 µg/mL | – | –
C=C(C)[C@@H]1CC[C@]2(C)CC[C@]3(C)[C@H](CC[C@@H]4[C@@]5(C)CC[C@H](OC(=O)c6ccccc6)C(C)(C)[C@@H]5CC[C@]43C)[C@@H]12 [Compound 16, Lupeol benzoate] | >20 | >20 µg/mL | >20 | – | – | – | – | –
C=C(C)[C@@H]1CC[C@]2(CO)CC[C@]3(C)[C@H](CC[C@@H]4[C@@]5(C)CC[C@H](O)C(C)(C)[C@@H]5CC[C@]43C)[C@@H]12 [Compound 12, lup-20(29)-ene-3β,28-diol] | >20 | >20 µg/mL | >20 | – | – | – | – | –
C=C(C)C1CCC2(C(=O)O)CCC3(C)C(CCC4C5(C)CCC(=NOC)C(C)(C)C5CCC43C)C12 (stereo not drawn) [Compound 13] | 4.3 (≈ 8.89 µM) | 8.3 µg/mL (≈ 17.2 µM) | >20 | – | – | – | decrease in selective cytotoxicity | –
COC(=O)C[C@](O)(CCCC(C)(C)O)C(=O)O[C@@H]1C(OC)=C[C@]23CCCN2CCc2cc4c(cc2[C@H]13)OCO4 [Homoharringtonine] | – | – | – | – | – | – | – | IC50 ([14]; three days incubation, SRB): 0.02 µg/mL (≈ 0.0367 µM); IC50 ([4]; three days incubation, SRB): 0.03 µg/mL (≈ 0.055 µM); IC50 ([5]; three days incubation, SRB): 0.1 µg/mL (≈ 0.183 µM); IC50 [15]: 0.01 µg/mL (≈ 0.0183 µM); IC50 ([6]; three days incubation, SRB): 0.03 µg/mL (≈ 0.055 µM); IC50 [16]: 0.03 µg/mL (≈ 0.055 µM); IC50 ([7]; three days incubation, SRB): 0.2 µg/mL (≈ 0.367 µM); IC50 ([8]; three days incubation, SRB): 0.06 µg/mL (≈ 0.11 µM); IC50 [2]: 0.04 µg/mL (≈ 0.0733 µM); cytotoxic activity profile, cell-type selectivity [9]: relatively intense, nonselective cytotoxic activity
C=C(C)[C@@H]1CC[C@]2(C)CC[C@]3(C)[C@H](CC[C@@H]4[C@@]5(C)CC[C@H](O)C(C)(C)[C@@H]5CC[C@]43C)[C@@H]12 [Compound 15, Lupeol] | >20 | 17.6 µg/mL (≈ 41.2 µM) | 15.6 (≈ 36.6 µM) | – | – | – | – | –
C=C(C)C1CCC2(C=NO)CCC3(C)C(CCC4C5(C)CCC(=NO)C(C)(C)C5CCC43C)C12 (stereo not drawn) [Compound 4] | 3.3 (≈ 7.04 µM) | 2.2 (0.7) μg/mL | 4.1 (≈ 8.75 µM) | 17.5 | 11.9 (2.7) μg/mL | 1.4 (0.6) μg/mL | improved the cytotoxicity profile, although selectivity was lost | –
CC[C@]1(O)C[C@H]2CN(CCc3c([nH]c4ccccc34)[C@@](C(=O)OC)(c3cc4c(cc3OC)N(C=O)[C@H]3[C@@](O)(C(=O)OC)[C@H](OC(C)=O)[C@]5(CC)C=CCN6CC[C@]43[C@@H]65)C2)C1 [Vincristine] | – | – | – | – | – | – | – | IC50 ([14]; three days incubation, SRB): 0.01 µg/mL (≈ 0.0121 µM); IC50 ([4]; three days incubation, SRB): 0.01 µg/mL (≈ 0.0121 µM); IC50 ([5]; three days incubation, SRB): 0.02 µg/mL (≈ 0.0242 µM); IC50 [15]: 0.02 µg/mL (≈ 0.0242 µM); IC50 ([6]; three days incubation, SRB): 0.1 µg/mL (≈ 0.121 µM); IC50 [16]: 0.05 µg/mL (≈ 0.0606 µM); IC50 ([7]; three days incubation, SRB): 0.06 µg/mL (≈ 0.0727 µM); IC50 ([8]; three days incubation, SRB): 0.4 µg/mL (≈ 0.485 µM); IC50 [2]: 0.02 µg/mL (≈ 0.0242 µM); cytotoxic activity profile, cell-type selectivity [9]: relatively intense, nonselective cytotoxic activity
CC(C)[C@@H]1CC[C@]2(C(=O)O)CC[C@]3(C)C(CCC4[C@@]5(C)CC[C@H](O)C(C)(C)C5CC[C@]43C)C12 (stereo partly drawn) [Compound 11, Dihydrobetulinic acid] | >20 | 5.8 µg/mL (≈ 12.6 µM) | >20 | – | – | – | less active | –
CON=C1CCC2(C)C(CCC3(C)C2CCC2C4C(C(C)C)CCC4(C(=O)O)CCC23C)C1(C)C (stereo not drawn) [Compound 5] | – | >20 µg/mL | – | >20 | >20 µg/mL | >20 µg/mL | less active | –
C=C(C)C1CCC2(C=O)CCC3(C)C(CCC4C5(C)CCC(=O)C(C)(C)C5CCC43C)C12 (stereo not drawn) [Compound 1] | 12.9 (≈ 29.4 µM) | 7.4 (2.4) μg/mL | 18.5 (≈ 42.2 µM) | >20 | >20 µg/mL | 3.2 (1.2) μg/mL | – | –
CC[C@@]1(O)C(=O)OCc2c1cc1n(c2=O)Cc2cc3ccccc3nc2-1 [Camptothecin] | – | – | – | – | – | – | – | IC50 ([4]; three days incubation, SRB): 0.07 µg/mL (≈ 0.201 µM); IC50 ([5]; three days incubation, SRB): 0.005 µg/mL (≈ 0.0144 µM); IC50 [15]: 0.01 µg/mL (≈ 0.0287 µM); IC50 ([6]; three days incubation, SRB): 0.006 µg/mL (≈ 0.0172 µM); IC50 ([8]; three days incubation, SRB): 0.001 µg/mL (≈ 0.00287 µM); IC50 [2]: 0.02 µg/mL (≈ 0.0574 µM); cytotoxic activity profile, cell-type selectivity [9]: relatively intense, nonselective cytotoxic activity
COc1cc([C@@H]2c3cc4c(cc3[C@H](O)[C@H]3COC(=O)[C@H]23)OCO4)cc(OC)c1OC [Podophyllotoxin] | – | – | – | – | – | – | – | IC50 [14]: 0.03 µg/mL (≈ 0.0724 µM); IC50 [4]: 0.03 µg/mL (≈ 0.0724 µM); IC50 [5]: 0.005 µg/mL (≈ 0.0121 µM); IC50 [1]: 0.08 µg/mL (≈ 0.193 µM); IC50 [6]: 0.04 µg/mL (≈ 0.0965 µM); IC50 [7]: 0.004 µg/mL (≈ 0.00965 µM); IC50 [8]: 0.4 µg/mL (≈ 0.965 µM); IC50 [2]: 0.003 µg/mL (≈ 0.00724 µM); cytotoxic activity profile, cell-type selectivity [9]: relatively intense, nonselective cytotoxic activity
